Like-named read-outs stand apart in the source and are kept apart here. Each block holds one compound with its values, some of them ahead of it. Residues, ends and D or L forms follow the SMILES beside them.
How the values were obtained:
leucine aminopeptidase [1] = target: T1, leucine aminopeptidase (Sus scrofa, UniProt P15145); details: pH 7
T1 sequence (P15145 1-963): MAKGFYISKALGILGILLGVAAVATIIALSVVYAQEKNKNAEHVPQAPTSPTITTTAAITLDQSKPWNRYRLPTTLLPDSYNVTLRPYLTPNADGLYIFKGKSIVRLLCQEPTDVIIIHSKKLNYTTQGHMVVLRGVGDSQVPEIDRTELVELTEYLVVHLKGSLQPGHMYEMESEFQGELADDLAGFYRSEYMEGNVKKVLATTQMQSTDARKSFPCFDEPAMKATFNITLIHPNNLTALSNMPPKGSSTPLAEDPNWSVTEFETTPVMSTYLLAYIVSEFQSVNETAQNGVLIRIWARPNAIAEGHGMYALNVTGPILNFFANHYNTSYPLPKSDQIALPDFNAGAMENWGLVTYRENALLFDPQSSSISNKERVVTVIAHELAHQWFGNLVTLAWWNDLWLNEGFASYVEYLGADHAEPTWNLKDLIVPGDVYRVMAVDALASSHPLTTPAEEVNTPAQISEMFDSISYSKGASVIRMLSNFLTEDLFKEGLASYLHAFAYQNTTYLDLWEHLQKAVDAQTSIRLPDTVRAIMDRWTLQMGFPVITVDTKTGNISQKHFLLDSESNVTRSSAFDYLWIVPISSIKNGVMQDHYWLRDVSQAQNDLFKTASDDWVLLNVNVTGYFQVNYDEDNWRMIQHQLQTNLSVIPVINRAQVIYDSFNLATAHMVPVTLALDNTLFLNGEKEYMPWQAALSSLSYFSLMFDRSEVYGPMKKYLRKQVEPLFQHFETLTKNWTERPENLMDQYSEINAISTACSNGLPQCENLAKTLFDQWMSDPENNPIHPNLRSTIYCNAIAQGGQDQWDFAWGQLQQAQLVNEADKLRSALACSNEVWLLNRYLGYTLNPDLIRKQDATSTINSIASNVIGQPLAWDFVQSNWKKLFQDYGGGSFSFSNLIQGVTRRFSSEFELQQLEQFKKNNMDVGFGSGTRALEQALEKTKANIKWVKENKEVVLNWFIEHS
Protocol: (§1) After a 30-min enzymatic activation, the stock solutions of three thymopoietin oligopeptides were added into the above solution and made the final concentration of peptides at 0.1 mM. At specified time intervals after adding peptide, 100 µL aliquots were sampled and diluted with an equal volume of 1 M perchloric acid incubated in an ice bath to stop reaction. Meanwhile, a 100 mL aliquot of the abovementioned buffer was added to the incubation medium. […] All experiments were replicated at least three times.
(§2) Cldeg was determined by linear regression analysis from plots of ΣM versus the AUC at different time points [3, 11].

[2] = cobalt ion chelation-mediated fluorescence recovery of calcein; format: physicochemical; details: calcein 0.0625 µg/mL, calcein:cobalt dichloride 1:1 molar, normalized maximum fluorescence emission F/F0, excitation 490 nm
Text: It is well known that calcein fluorescence can be strongly quenched by cobalt ions at physiological pH, while removal of cobalt ion from the complex by EDTA-mediated chelation will lead to a significant increase in fluorescence intensity. Thus, the chelating capacity of the resultant conjugate can be determined by measuring the cobalt ion-chelating-mediated fluorescence recovery of calcein. […] The excitation wavelength of calcein was set at 490 and its emission was monitored in the range of 500–650 nm. The slits of excitation and emission were set at 5 and 3 nm, respectively. All background effects were subtracted. In addition, the same experiment was done in the presence of EDTA.

leucine aminopeptidase [3] = target: T1, leucine aminopeptidase; assay: leucine aminopeptidase-mediated degradation of thymopoietin oligopeptides (degradation kinetics and clearance); details: peptide 0.1 mM, LAP 0.01 U/mL, Krebs phosphate buffer pH 7.0, 37 °C, RP-HPLC, Cldeg from ΣM versus AUC, at least three replicates
Protocol: as §1, §2

- order of susceptibility to leucine aminopeptidase (degradation clearance) (leucine aminopeptidase [1]): TP4 > TP5 > TP3
Structure (SMILES): N=C(N)NCCC[C@H](N)C(=O)N[C@@H](CCCCN)C(=O)N[C@@H](CC(=O)O)C(=O)O [TP3, Thymotrinan] (H-Arg-Lys-Asp-OH)

Structure (SMILES): O=C(O)CN(CCN(CC(=O)O)CC(=O)O)CC(=O)O [EDTA, ethylene diamine tetraacetic acid]
- EDTA group concentration above which the calcein fluorescence plateau was reached (almost complete removal of cobalt ions from the calcein/cobalt ion complex) [2]: higher than 0.67 µM

- order of susceptibility to leucine aminopeptidase (degradation clearance) (leucine aminopeptidase [3]): TP4 > TP5 > TP3
Structure (SMILES): CC(C)[C@H](NC(=O)[C@H](CC(=O)O)NC(=O)[C@H](CCCCN)NC(=O)[C@@H](N)CCCNC(=N)N)C(=O)O [TP4, thymocartin] (H-RKDV-OH)

— publication PMC6152209, “Synthesis, Characterization and In Vitro Evaluation of a Novel Glycol Chitosan-EDTA Conjugate to Inhibit Aminopeptidase-Mediated Degradation of Thymopoietin Oligopeptides” (Molecules : A Journal of Synthetic Chemistry and Natural …, 2017)
